Reference: article PMC12062220, “Unveiling the role of Ndrg1 gene on the oxidative stress induction behind the anticancer potential of styrylquinazoline derivatives” (Scientific Reports, 2025)

How the values were obtained:
Experiment in all cases: ADP-Glo kinase assay (Promega), % inhibition at […]
Assay type in all cases: biochemical
[1] = molecular target: insulin-like growth factor 1 receptor (IGF1R) (Homo sapiens, UniProt P08069)
[2] = molecular target: EGFR (Homo sapiens, UniProt P00533)
[3] = molecular target: T1, HER2 (Homo sapiens, UniProt P04626)
T1 construct: gene ERBB2
T1 sequence (P04626 23-1255): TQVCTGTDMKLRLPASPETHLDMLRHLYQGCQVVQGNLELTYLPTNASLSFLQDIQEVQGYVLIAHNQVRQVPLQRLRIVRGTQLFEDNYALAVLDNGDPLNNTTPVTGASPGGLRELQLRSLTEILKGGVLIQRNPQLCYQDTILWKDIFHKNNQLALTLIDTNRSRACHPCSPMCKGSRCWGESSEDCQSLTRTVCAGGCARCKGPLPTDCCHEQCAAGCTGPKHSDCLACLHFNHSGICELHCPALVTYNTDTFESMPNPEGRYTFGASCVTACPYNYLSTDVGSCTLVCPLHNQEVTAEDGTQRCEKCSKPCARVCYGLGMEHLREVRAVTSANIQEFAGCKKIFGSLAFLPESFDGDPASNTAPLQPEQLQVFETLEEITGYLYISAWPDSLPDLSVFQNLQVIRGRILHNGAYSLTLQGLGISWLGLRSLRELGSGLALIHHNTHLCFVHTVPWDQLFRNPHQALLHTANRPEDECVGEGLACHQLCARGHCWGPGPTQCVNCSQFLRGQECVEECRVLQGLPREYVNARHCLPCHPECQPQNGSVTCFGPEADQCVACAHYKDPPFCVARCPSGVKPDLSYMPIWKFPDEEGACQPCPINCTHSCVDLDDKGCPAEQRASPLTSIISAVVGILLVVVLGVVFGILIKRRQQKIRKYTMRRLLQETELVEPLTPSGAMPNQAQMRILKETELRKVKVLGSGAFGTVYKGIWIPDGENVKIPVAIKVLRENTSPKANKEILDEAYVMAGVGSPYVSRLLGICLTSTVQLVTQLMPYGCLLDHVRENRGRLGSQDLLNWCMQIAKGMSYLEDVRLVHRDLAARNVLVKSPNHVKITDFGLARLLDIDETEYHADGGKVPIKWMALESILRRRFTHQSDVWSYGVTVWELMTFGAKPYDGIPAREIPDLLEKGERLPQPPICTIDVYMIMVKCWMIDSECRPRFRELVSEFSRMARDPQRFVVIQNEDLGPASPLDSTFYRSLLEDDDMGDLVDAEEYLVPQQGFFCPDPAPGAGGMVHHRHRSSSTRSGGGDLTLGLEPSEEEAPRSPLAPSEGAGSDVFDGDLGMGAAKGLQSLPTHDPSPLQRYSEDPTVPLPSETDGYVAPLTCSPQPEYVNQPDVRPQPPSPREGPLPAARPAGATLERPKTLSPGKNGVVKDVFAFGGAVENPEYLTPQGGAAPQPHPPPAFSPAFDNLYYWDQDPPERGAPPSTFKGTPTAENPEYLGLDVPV

insulin-like growth factor 1 receptor (IGF1R), sequence (P08069 31-736): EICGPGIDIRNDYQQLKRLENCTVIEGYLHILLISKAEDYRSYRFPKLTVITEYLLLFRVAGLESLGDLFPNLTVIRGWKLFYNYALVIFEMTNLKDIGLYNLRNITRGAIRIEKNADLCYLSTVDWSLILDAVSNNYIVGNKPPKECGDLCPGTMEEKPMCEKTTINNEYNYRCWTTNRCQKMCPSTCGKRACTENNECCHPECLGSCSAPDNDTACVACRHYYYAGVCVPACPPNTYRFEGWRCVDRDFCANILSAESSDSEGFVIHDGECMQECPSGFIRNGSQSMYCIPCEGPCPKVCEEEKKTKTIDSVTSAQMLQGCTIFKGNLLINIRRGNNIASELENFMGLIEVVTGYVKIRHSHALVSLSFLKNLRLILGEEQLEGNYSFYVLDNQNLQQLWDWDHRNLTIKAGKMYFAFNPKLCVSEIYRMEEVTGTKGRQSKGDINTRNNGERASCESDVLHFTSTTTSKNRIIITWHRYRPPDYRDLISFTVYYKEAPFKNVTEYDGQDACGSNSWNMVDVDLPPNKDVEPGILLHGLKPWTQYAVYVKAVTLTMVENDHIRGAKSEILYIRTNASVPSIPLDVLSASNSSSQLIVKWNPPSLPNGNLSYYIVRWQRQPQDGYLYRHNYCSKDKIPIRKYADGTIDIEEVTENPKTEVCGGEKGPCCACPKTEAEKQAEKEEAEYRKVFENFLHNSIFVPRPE
insulin-like growth factor 1 receptor (IGF1R), sequence (P08069 741-1367): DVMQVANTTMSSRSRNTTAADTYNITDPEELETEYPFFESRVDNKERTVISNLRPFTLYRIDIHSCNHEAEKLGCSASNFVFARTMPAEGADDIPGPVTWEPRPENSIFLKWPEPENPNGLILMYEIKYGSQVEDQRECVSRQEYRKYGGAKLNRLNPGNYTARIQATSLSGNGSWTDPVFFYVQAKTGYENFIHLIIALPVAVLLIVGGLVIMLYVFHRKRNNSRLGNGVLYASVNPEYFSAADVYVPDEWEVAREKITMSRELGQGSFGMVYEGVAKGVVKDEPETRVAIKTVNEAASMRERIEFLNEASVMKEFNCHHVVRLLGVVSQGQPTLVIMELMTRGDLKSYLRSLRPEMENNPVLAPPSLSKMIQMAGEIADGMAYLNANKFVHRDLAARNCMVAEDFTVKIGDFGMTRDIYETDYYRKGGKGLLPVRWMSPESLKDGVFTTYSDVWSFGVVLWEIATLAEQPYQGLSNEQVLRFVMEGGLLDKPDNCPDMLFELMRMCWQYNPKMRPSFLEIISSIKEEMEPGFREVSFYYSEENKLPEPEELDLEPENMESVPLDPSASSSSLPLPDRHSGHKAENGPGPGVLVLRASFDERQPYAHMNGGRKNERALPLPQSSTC
EGFR, sequence (P00533 25-1210): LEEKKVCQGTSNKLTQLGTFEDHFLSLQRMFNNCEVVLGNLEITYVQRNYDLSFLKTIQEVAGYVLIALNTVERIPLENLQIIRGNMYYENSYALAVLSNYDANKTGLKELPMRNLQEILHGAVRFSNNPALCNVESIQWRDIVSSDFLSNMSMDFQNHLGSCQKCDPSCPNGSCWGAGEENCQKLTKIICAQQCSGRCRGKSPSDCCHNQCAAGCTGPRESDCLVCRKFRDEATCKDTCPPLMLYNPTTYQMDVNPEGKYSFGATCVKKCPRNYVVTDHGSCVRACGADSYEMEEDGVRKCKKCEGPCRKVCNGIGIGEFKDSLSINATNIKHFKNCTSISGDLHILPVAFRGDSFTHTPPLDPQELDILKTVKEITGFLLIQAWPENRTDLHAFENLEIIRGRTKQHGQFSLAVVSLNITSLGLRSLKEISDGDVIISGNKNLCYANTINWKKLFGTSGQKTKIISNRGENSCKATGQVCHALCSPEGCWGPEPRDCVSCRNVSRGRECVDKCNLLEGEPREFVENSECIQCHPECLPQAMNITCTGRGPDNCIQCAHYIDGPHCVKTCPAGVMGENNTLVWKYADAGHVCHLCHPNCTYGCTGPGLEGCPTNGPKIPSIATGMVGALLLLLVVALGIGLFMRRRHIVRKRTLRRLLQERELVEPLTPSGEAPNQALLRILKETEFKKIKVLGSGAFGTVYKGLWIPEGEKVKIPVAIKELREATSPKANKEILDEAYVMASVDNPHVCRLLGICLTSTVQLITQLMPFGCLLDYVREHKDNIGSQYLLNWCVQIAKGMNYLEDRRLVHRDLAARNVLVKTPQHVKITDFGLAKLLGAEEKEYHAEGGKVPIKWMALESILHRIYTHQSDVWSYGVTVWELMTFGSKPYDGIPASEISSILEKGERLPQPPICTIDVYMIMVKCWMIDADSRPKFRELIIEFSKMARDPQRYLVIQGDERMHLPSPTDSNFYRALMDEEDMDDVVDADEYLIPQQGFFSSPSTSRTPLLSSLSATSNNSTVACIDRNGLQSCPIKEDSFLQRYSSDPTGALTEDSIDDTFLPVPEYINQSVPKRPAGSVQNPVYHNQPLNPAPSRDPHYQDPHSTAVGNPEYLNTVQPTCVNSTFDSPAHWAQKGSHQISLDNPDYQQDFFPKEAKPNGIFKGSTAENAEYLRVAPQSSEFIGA

Compound `COc1ccccc1/C=C/c1nc(Nc2ccc3c(c2)OCO3)c2ccccc2n1` [IS20, N-(1,3-benzodioxol-5-yl)-2-[(E)-2-(2-methoxyphenyl)vinyl] quinazolin-4-amine] has an inhibition at 1 µM [1] of 40%, an inhibition at 1 µM [2] of 25 to 30% and an inhibition at 1 µM [3] of 25 to 30%.
